Reference: the CheMixHub viscosity set

Assay: xn = mol fraction of the nth substance listed
Settings: 101.3 kPa

NCCCN + CC(O)CO
viscosity [mPa·s]
Settings | 293.15 K | 298.15 K | 303.15 K | 308.15 K | 313.15 K | 318.15 K
x2 = 0.0488 | 2.44 | 2.19 | 1.92 | 1.68 | 1.48 | 1.32
x2 = 0.0977 | 3.15 | 2.8 | 2.43 | 2.08 | 1.82 | 1.58
x2 = 0.1467 | 3.95 | 3.45 | 2.97 | 2.51 | 2.17 | 1.91
x2 = 0.1958 | 5.23 | 4.5 | 3.79 | 3.17 | 2.7 | 2.34
x2 = 0.2451 | 6.85 | 5.81 | 4.87 | 4 | 3.36 | 2.88
x2 = 0.2945 | 9.15 | 7.62 | 6.28 | 5.09 | 4.2 | –
x2 = 0.3441 | 12.3 | 10 | 8.12 | 6.48 | 5.29 | –
x2 = 0.3937 | 17 | 13.6 | 10.8 | 8.39 | 6.74 | –
x2 = 0.4435 | 22.8 | 17.9 | 14 | 10.7 | 8.55 | –
x2 = 0.4934 | 30 | 23.2 | 17.9 | 13.6 | 10.6 | –
x2 = 0.5435 | 38.5 | 29.3 | 22.2 | 16.7 | 12.9 | –
x2 = 0.5937 | 47.4 | 35.8 | 27 | 20.1 | 15.4 | –
x2 = 0.644 | 55.5 | 41.8 | 31.4 | 23.2 | 17.6 | –
x2 = 0.6945 | 62.5 | 46.9 | 35.1 | 25.9 | 19.7 | –
x2 = 0.745 | 67.1 | 50.3 | 37.8 | 27.8 | 21.2 | –
x2 = 0.7958 | 69 | 51.8 | 38.8 | 28.8 | 21.9 | –
x2 = 0.8466 | 68.9 | 51.9 | 39 | 28.9 | 22 | –
x2 = 0.8976 | 66.1 | 50 | 37.7 | 28.1 | 21.5 | –
x2 = 0.9487 | 62.3 | 47.1 | 35.7 | 26.8 | 20.5 | –
